IC50 data for 16 molecules are collected here from patent publication US11078228B2, “Ectonucleotidase inhibitors and methods of use thereof” (Calithera Biosciences, Inc., priority 2018, dated 2021).

Molecules are shown by their SMILES.

Chain of recombinant CD73 (P21589 27-547): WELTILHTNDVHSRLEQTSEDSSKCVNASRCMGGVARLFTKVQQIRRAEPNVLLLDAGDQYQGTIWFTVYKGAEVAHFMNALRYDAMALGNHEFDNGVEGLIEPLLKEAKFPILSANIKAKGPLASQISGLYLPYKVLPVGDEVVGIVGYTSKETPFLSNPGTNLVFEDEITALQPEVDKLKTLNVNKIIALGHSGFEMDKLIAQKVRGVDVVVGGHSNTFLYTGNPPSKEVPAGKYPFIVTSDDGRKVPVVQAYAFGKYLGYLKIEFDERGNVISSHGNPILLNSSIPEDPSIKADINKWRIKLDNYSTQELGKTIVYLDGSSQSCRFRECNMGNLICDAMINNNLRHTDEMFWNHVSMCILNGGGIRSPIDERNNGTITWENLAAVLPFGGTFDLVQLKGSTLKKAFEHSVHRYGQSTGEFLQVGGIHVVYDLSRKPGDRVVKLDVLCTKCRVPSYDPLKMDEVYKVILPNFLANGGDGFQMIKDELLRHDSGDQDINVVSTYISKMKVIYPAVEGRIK

The target in the assay is recombinant CD73 (Homo sapiens (Human), UniProt P21589). Kind of assay: Assay 2: Inhibition of the CD73 enzyme in vitro (0.05 nM CD73, 1 hour 37° C., Malachite Green). It is filed as biochemical. To be noted: 0.05 nM CD73, 50 μM AMP, 1 hour at 37° C. The procedure, abridged:
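Soluble recombinant CD73 reactions ran 1 hour at 37° C. Malachite Green was then added, and absorbance at 630 nm was read after 5 min at room temperature. Inorganic phosphate was quantified from a phosphate standard curve.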
For the molecule `C#C[C@@]1(O)[C@@H](COC(Cc2ccc(N3CCCN(C)C3=O)cc2)(C(=O)O)C(=O)O)O[C@@H](n2cnc3c(N)nc(Cl)nc32)[C@@H]1O` [Example 149, 2-(((2R,3S,4R,5R)-5-(6-amino-2-chloro-9H-purin-9-yl)-3-ethynyl-3,4-dihydroxytetrahydrofuran-2-yl)methoxy)-2-(4-(3-methyl-2-oxotetrahydropyrimidin-1 (2H)-yl)benzyl)malonic acid], the IC50 amounted to 0.11 nM.
The same measure for `C#C[C@@]1(O)[C@@H](COC(Cc2ccc(N3CCCN(C)C3=O)cc2)(C(=O)O)C(=O)O)O[C@@H](n2cnc3c(NC)nc(Cl)nc32)[C@@H]1O` [Example 148, 2-(((2R,3S,4R,5R)-5-(2-chloro-6-(methylamino)-9H-purin-9-yl)-3-ethynyl-3,4-dihydroxytetrahydrofuran-2-yl)methoxy)-2-(4-(3-methyl-2-oxotetrahydropyrimidin-1 (2H)-yl)benzyl)malonic acid]: 0.08 nM; for `C#C[C@@]1(O)[C@@H](CO[C@@H](Cc2ccc(N3CCCNC3=O)cc2)C(=O)O)O[C@@H](n2cnc3c(N)nc(Cl)nc32)[C@@H]1O` (single isomer, unassigned) [Example 167]: 139 nM; for `C#C[C@@]1(O)[C@@H](COC(Cc2ccc(N3CCCN(CCC)C3=O)cc2)(C(=O)O)C(=O)O)O[C@@H](n2cnc3c(N)nc(Cl)nc32)[C@@H]1O` [Example 152, 2-(((2R,3S,4R,5R)-5-(6-amino-2-chloro-9H-purin-9-yl)-3-ethynyl-3,4-dihydroxytetrahydrofuran-2-yl)methoxy)-2-(4-(2-oxo-3-propyltetrahydropyrimidin-1 (2H)-yl)benzyl)malonic acid]: 0.05 nM.
On to `C#C[C@@]1(O)[C@@H](COC(Cc2ccccc2)(C(=O)O)C(=O)O)O[C@@H](n2cnc3c(NCc4cccnc4)nc(Cl)nc32)[C@@H]1O` [Example 84, 2-benzyl-2-(((2R,3S,4R,5R)-5-(2-chloro-6-((pyridin-3-ylmethyl)amino)-9H-purin-9-yl)-3-ethynyl-3,4-dihydroxytetrahydrofuran-2-yl)methoxy)malonic acid], for which the IC50 was found to be 3 nM.
Regarding `C#C[C@@]1(O)[C@@H](COC(Cc2ccccc2)(C(=O)O)C(=O)O)O[C@@H](n2cnc3c(N4CC(O)C4)nc(Cl)nc32)[C@@H]1O` [Example 41, 2-benzyl-2-(((2R,3S,4R,5R)-5-(2-chloro-6-(3-hydroxyazetidin-1-yl)-9H-purin-9-yl)-3-ethynyl-3,4-dihydroxytetrahydrofuran-2-yl)methoxy)malonic acid], the IC50 worked out at 0.6 nM.
Consider `C#C[C@@]1(O)[C@@H](COC(Cc2ccccc2)(C(=O)O)C(=O)O)O[C@@H](n2cnc3c(N(C)C4CC(O)C4)nc(Cl)nc32)[C@@H]1O` (stereo partly drawn) [Example 48, 2-benzyl-2-(((2R,3S,4R,5R)-5-(2-chloro-6-((3-hydroxycyclobutyl)-(methyl)amino)-9H-purin-9-yl)-3-ethynyl-3,4-dihydroxytetrahydrofuran-2-yl)methoxy)malonic acid], for which the IC50 came out at 0.5 nM.
Then `C#C[C@@]1(O)[C@@H](COC(Cc2ccccc2)(C(=O)O)C(=O)O)O[C@@H](n2cnc3ccc(Cl)nc32)[C@@H]1O` [Example 58, 2-benzyl-2-(((2R,3S,4R,5R)-5-(5-chloro-3H-imidazo[4,5-b]pyridin-3-yl)-3-ethynyl-3,4-dihydroxytetrahydrofuran-2-yl)methoxy)malonic acid], with 1.6 nM; and `C#C[C@@]1(O)[C@@H](COC(Cc2ccccc2)(C(=O)O)C(=O)O)O[C@@H](n2cnc3c(N4CC[C@@H](CO)C4)nc(Cl)nc32)[C@@H]1O` [Example 102, 2-benzyl-2-(((2R,3S,4R,5R)-5-(2-chloro-6-((R)-3-(hydroxymethyl)-pyrrolidin-1-yl)-9H-purin-9-yl)-3-ethynyl-3,4-dihydroxytetrahydrofuran-2-yl)methoxy)malonic acid], with 1 nM.
Then `C#C[C@@]1(O)[C@@H](COC(Cc2cscn2)(C(=O)O)C(=O)O)O[C@@H](n2cnc3c(N)nc(Cl)nc32)[C@@H]1O` [Example 126, 2-(((2R,3S,4R,5R)-5-(6-amino-2-chloro-9H-purin-9-yl)-3-ethynyl-3,4-dihydroxytetrahydrofuran-2-yl)methoxy)-2-(thiazol-4-ylmethyl)malonic acid], with 9 nM; and `C#C[C@@]1(O)[C@@H](COC(Cc2ccccc2)(C(=O)O)C(=O)O)O[C@@H](n2cnc3c(N4CC[C@H](CO)C4)nc(Cl)nc32)[C@@H]1O` [Example 101, 2-benzyl-2-(((2R,3S,4R,5R)-5-(2-chloro-6-((S)-3-(hydroxymethyl)-pyrrolidin-1-yl)-9H-purin-9-yl)-3-ethynyl-3,4-dihydroxytetrahydrofuran-2-yl)methoxy)malonic acid], with 1 nM; and `C#C[C@@]1(O)[C@@H](COC(Cc2ccccc2)(C(=O)O)C(=O)O)O[C@@H](n2cnc3c(NCC4CCC4)nc(Cl)nc32)[C@@H]1O` [Example 45, 2-benzyl-2-(((2R,3S,4R,5R)-5-(2-chloro-6-((cyclobutylmethyl)amino)-9H-purin-9-yl)-3-ethynyl-3,4-dihydroxytetrahydrofuran-2-yl)methoxy)malonic acid], with 1 nM.
`C#C[C@@]1(O)[C@@H](COC(Cc2ccccc2)(C(=O)O)C(=O)O)O[C@@H](n2cnc3c(N(CCO)C4CC4)nc(Cl)nc32)[C@@H]1O` [Example 99, 2-benzyl-2-(((2R,3S,4R,5R)-5-(2-chloro-6-(cyclopropyl(2-hydroxyethyl)amino)-9H-purin-9-yl)-3-ethynyl-3,4-dihydroxytetrahydrofuran-2-yl)methoxy)malonic acid]: the IC50 is 6 nM.
The same measure for `C#C[C@@]1(O)[C@@H](COC(Cc2ccc(N3CCCN(C)C3=O)cc2)(C(=O)O)C(=O)O)O[C@@H](n2cnc3c(NC(C)C)nc(Cl)nc32)[C@@H]1O` [Example 151, 2-(((2R,3S,4R,5R)-5-(2-chloro-6-(isopropylamino)-9H-purin-9-yl)-3-ethynyl-3,4-dihydroxytetrahydrofuran-2-yl)methoxy)-2-(4-(3-methyl-2-oxotetrahydropyrimidin-1(2H)-yl)benzyl)malonic acid]: 0.25 nM; for `C#C[C@@]1(O)[C@@H](COC(Cc2ccc(N3CCCNC3=O)cc2)(C(=O)O)c2cscn2)O[C@@H](n2cnc3c(NC(C)C)nc(Cl)nc32)[C@@H]1O` (stereo partly drawn) [Example 176, 2-(((2R,3S,4R,5R)-5-(2-chloro-6-(isopropylamino)-9H-purin-9-yl)-3-ethynyl-3,4-dihydroxytetrahydrofuran-2-yl)methoxy)-3-(4-(2-oxotetrahydropyrimidin-1(2H)-yl)phenyl)-2-(thiazol-4-yl)propanoic acid]: 5 nM.
The same measure for `C#C[C@@]1(O)[C@@H](COC(Cc2ccccc2)(C(=O)O)C(=O)O)O[C@@H](n2cnc3c(N)nc(C(C)O)nc32)[C@@H]1O` (stereo partly drawn) [Example 161, 2-(((2R,3S,4R,5R)-5-(6-amino-2-(1-hydroxyethyl)-9H-purin-9-yl)-3-ethynyl-3,4-dihydroxytetrahydrofuran-2-yl)methoxy)-2-benzylmalonic acid]: 561 nM.

For orientation: IC50 means the point on the concentration scale where inhibition reaches its midpoint.
